Test system: Stage IIIB or Stage IV Non-Small Cell Lung Cancer (NSCLC)
Assay: Phase 2 clinical trial of Compound (1) (STA-4783, elesclomol) with paclitaxel and carboplatin vs paclitaxel and carboplatin; PFS and OS by baseline LDH
Assay type: in vivo, human
Method: A Phase 2 Clinical Trial of Compound (1), or STA-4783 (elesclomol) in combination with paclitaxel and carboplatin for the treatment of chemotherapy naive patients with Stage IIIB or Stage IV Non-Small Cell Lung Cancer (NSCLC) was performed. It was a multicenter, randomized, double-blinded, 2-arm study evaluating the recommended Phase 2 dose of STA-4783 (elesclomol) and paclitaxel and AUC=6 mg·min/mL carboplatin as compared with the recommended Phase 2 dose of paclitaxel and AUC=6 mg·min/mL carboplatin.
Both progression-free survival (PFS) and overall survival (OS) were improved in the low baseline LDH (≦0.8 ULN) population (where ULN is Upper Limit of Normal, which in at least one laboratory was 234 units/L, significant deviation from which was low).
Table 1 presents PFS outcomes for ITT (Intent To Treat) population patients with high, normal and low baseline LDH levels. […] In patients with low baseline LDH levels, PFS was improved for treatment, with a median of 4.6 vs. 3.1 months (HR=0.88), where HR mean Hazard Ratio. In patients with normal baseline LDH, median PFS is similar for treatment and control arms (3.3 and 4.0 months, respectively), with a HR of 1.17. In patients with high baseline LDH, median PFS was 2.8 and 6.3 months for treatment and control arms, respectively (HR=[…])
Table 2 presents a summary of the OS analyses for the ITT population with high, normal and low baseline LDH levels. In patients with low baseline LDH levels, OS was improved for treatment, with a median of 10.7 vs. 8.5 months (HR=0.74). In patients with normal baseline LDH, median OS is similar for treatment and control arms (8.4 and 8.4 months, respectively), with a HR of 0.91. In patients with high baseline LDH, median […] was 5 and 10 months for treatment and control arms, respectively (HR=1.64)

[1] = elevated LDH (>1 ULN) population
[2] = low baseline LDH (≦0.8 ULN) population

CN(NC(=O)CC(=O)NN(C)C(=S)c1ccccc1)C(=S)c1ccccc1 [Compound (1), elesclomol]
overall survival (OS), result in words [1]: negative impact | progression-free survival (PFS), result in words [1]: negative impact | overall survival (OS), result in words [2]: improved | progression-free survival (PFS), result in words [2]: improved
